Measured values published in ChEMBL document CHEMBL5365531, “Structure-Activity Relationship Studies of SARS-CoV-2 Main Protease Inhibitors Containing 4-Fluorobenzothiazole-2-carbonyl Moieties” (J Med Chem, 2023).

Tests used:
PBMC = experiment: Cytotoxicity against human PBMC cells assessed as reduction in cell viability at 3 uM incubated for 12 days by CCK-8 assay; type: toxicity, cell-based; settings: 288 h, time 12 day
[1] = target: Replicase polyprotein 1ab (Severe acute respiratory syndrome coronavirus 2, UniProt P0DTD1); experiment: Inhibition of untagged SARS-CoV-2 JPN/TY/WK-521 Main protease using FRET-based UIVT3 as substrate by continuous fluorescence assay
[2] = Mutagenicity in Salmonella typhimurium TA1535 assessed as fold increase in number of revertants at 0.152 to 333 ug incubated in absence of S9 fraction by micro-Ames test relative to control; type: toxicity, Salmonella enterica subsp. enterica serovar Typhimurium; settings: in vivo; dose 0.152-333 µg
SARS-CoV-2 [3] = experiment: Antiviral activity against SARS-CoV-2 infected in Vero E6 cells preincubated with cells for 1 day in presence of HCl treated compound followed by viral infection and measured after 3 days by qRT-PCR analysis; type: functional, organism-based; settings: Severe acute respiratory syndrome coronavirus 2, Vero C1008
[4] = Mutagenicity in Escherichia coli WP2uvrA assessed as fold increase in number of revertants at 0.152 to 333 ug incubated in presence of S9 fraction by micro-Ames test relative to control; type: toxicity, subcellular; settings: dose 0.152-333 µg
[5] = Mutagenicity in Escherichia coli WP2uvrA assessed as inhibition of bacterial growth at 0.152 to 333 ug incubated in presence of S9 fraction by micro-Ames test; type: toxicity, subcellular; settings: dose 0.152-333 µg
[6] = Cytotoxicity against human HepG2 cells; type: toxicity, cell-based
SARS-CoV-2 [7] = experiment: Antiviral activity against SARS-CoV-2 assessed as fold change relative to YH-53; type: functional, Severe acute respiratory syndrome coronavirus 2
[8] = Cytotoxicity against African green monkey Vero E6 cells in presence of P-glycoprotein inhibitor, CP100356; type: toxicity, cell-based, Vero C1008; settings: chlorocebus sabaeus, with CP100356 (P-glycoprotein inhibitor)
[9] = Mutagenicity in Salmonella typhimurium TA1535 assessed as inhibition of bacterial growth at 0.152 to 333 ug incubated in absence of S9 fraction by micro-Ames test; type: toxicity, Salmonella enterica subsp. enterica serovar Typhimurium; settings: in vivo; dose 0.152-333 µg
[10] = Mutagenicity in Salmonella typhimurium TA100 assessed as inhibition of bacterial growth at 0.152 to 333 ug incubated in presence of S9 fraction by micro-Ames test; type: toxicity, subcellular, Salmonella enterica subsp. enterica serovar Typhimurium; settings: dose 0.152-333 µg
[11] = Oral bioavailability in PXB mouse at 10 mg/kg measured for 24 hrs; type: ADME, organism-based; settings: in vivo
[12] = Mutagenicity in Escherichia coli WP2uvrA assessed as fold increase in number of revertants at 0.152 to 333 ug incubated in absence of S9 fraction by micro-Ames test relative to control; type: toxicity; settings: in vivo; dose 0.152-333 µg
[13] = Mutagenicity in Salmonella typhimurium TA1535 assessed as fold increase in number of revertants at 0.152 to 333 ug incubated in presence of S9 fraction by micro-Ames test relative to control; type: toxicity, subcellular, Salmonella enterica subsp. enterica serovar Typhimurium; settings: dose 0.152-333 µg
[14] = Mutagenicity in Salmonella typhimurium TA98 assessed as inhibition of bacterial growth at 0.152 to 333 ug incubated in absence of S9 fraction by micro-Ames test; type: toxicity, Salmonella enterica subsp. enterica serovar Typhimurium; settings: in vivo; dose 0.152-333 µg
SARS-CoV-2 [15] = experiment: Antiviral activity against SARS-CoV-2 infected in Vero E6 cells preincubated with cells for 1 day in absence of HCl followed by viral infection and measured after 3 days by qRT-PCR analysis; type: functional, organism-based; settings: Severe acute respiratory syndrome coronavirus 2, Vero C1008
[16] = Mutagenicity in Escherichia coli WP2uvrA assessed as inhibition of bacterial growth at 0.152 to 333 ug incubated in absence of S9 fraction by micro-Ames test; type: toxicity; settings: in vivo; dose 0.152-333 µg
[17] = Mutagenicity in Salmonella typhimurium TA98 assessed as fold increase in number of revertants at 0.152 to 333 ug incubated in presence of S9 fraction by micro-Ames test relative to control; type: toxicity, subcellular, Salmonella enterica subsp. enterica serovar Typhimurium; settings: dose 0.152-333 µg
[18] = Cytotoxicity against human HeLa cells expressing ACE2 and TMPRSS2; type: toxicity, cell-based
[19] = Cytotoxicity against human A549-hACE2-TMPRSS2 cells; type: toxicity, cell-based
[20] = Mutagenicity in Salmonella typhimurium TA100 assessed as fold increase in number of revertants at 0.152 to 333 ug incubated in absence of S9 fraction by micro-Ames test relative to control; type: toxicity, Salmonella enterica subsp. enterica serovar Typhimurium; settings: in vivo; dose 0.152-333 µg
[21] = Stability of compound in 50% MeCN in H2O containing 0.05% trifluoroacetic acid assessed as (1R,2S,5S)-3-((S)-3,3-dimethyl-2-(2,2,2-trifluoroacetamido)butanoyl)-N-((S)-1-(4-fluorobenzo[d]thiazol-2-yl)-1-oxo-3-((S)-2-oxopyrrolidin-3-yl)propan-2-yl)-6,6-dimethyl-3-azabicyclo[3.1.0]hexane-2-carboxamide formation at 5 degreeC measured after 24 hrs by RP-HPLC analysis; type: physicochemical
MOLT-4 = experiment: Cytotoxicity against human MOLT-4 cells assessed as reduction in cell viability at 3 uM incubated for 12 days by CCK-8 assay; type: toxicity, cell-based; settings: molt-4, 288 h, time 12 day
SARS-CoV-2 [22] = experiment: Antiviral activity against SARS-CoV-2 hCoV-19/Japan/TKYS02037/2022 (omicron BA.2) infected in Vero E6 cells preincubated with cells for 1 day followed by viral infection and measured after 3 days by qRT-PCR analysis; type: functional, organism-based; settings: Severe acute respiratory syndrome coronavirus 2, hCoV-19/Japan/TKYS02037/2022 (omicron BA.2), Vero C1008
[23] = Cytotoxicity against African green monkey Vero E6 cells incubated for 3 days by WST-8 assay; type: toxicity, cell-based, Vero C1008; settings: chlorocebus sabaeus, time 3 day
SARS-CoV-2 [24] = experiment: Antiviral activity against SARS-CoV-2 JPN/TY/WK-521 infected in Vero E6 cells preincubated with cells for 1 day followed by viral infection and measured after 3 days by qRT-PCR analysis; type: functional, organism-based; settings: Severe acute respiratory syndrome coronavirus 2, JPN/TY/WK-521, Vero C1008
[25] = Mutagenicity in Salmonella typhimurium TA1537 assessed as inhibition of bacterial growth at 0.152 to 333 ug incubated in absence of S9 fraction by micro-Ames test; type: toxicity, Salmonella enterica subsp. enterica serovar Typhimurium; settings: in vivo; dose 0.152-333 µg
[26] = Mutagenicity in Salmonella typhimurium TA1535 assessed as inhibition of bacterial growth at 0.152 to 333 ug incubated in presence of S9 fraction by micro-Ames test; type: toxicity, subcellular, Salmonella enterica subsp. enterica serovar Typhimurium; settings: dose 0.152-333 µg
[27] = Mutagenicity in Salmonella typhimurium TA100 assessed as inhibition of bacterial growth at 0.152 to 333 ug incubated in absence of S9 fraction by micro-Ames test; type: toxicity, Salmonella enterica subsp. enterica serovar Typhimurium; settings: in vivo; dose 0.152-333 µg
[28] = Mutagenicity in Salmonella typhimurium TA1537 assessed as fold increase in number of revertants at 0.152 to 333 ug incubated in presence of S9 fraction by micro-Ames test relative to control; type: toxicity, subcellular, Salmonella enterica subsp. enterica serovar Typhimurium; settings: dose 0.152-333 µg
[29] = Mutagenicity in Salmonella typhimurium TA1537 assessed as fold increase in number of revertants at 0.152 to 333 ug incubated in absence of S9 fraction by micro-Ames test relative to control; type: toxicity, Salmonella enterica subsp. enterica serovar Typhimurium; settings: in vivo; dose 0.152-333 µg
SARS-CoV-2 [30] = experiment: Antiviral activity against SARS-CoV-2 JPN/TY/WK-521 infected in Vero E6 cells assessed as inhibition of viral replication preincubated with cells for 1 day followed by viral infection and measured after 3 to 4 days by qRT-PCR analysis; type: functional, organism-based; settings: Severe acute respiratory syndrome coronavirus 2, JPN/TY/WK-521, Vero C1008
[31] = Mutagenicity in Salmonella typhimurium TA98 assessed as inhibition of bacterial growth at 0.152 to 333 ug incubated in presence of S9 fraction by micro-Ames test; type: toxicity, subcellular, Salmonella enterica subsp. enterica serovar Typhimurium; settings: dose 0.152-333 µg
MT2 = experiment: Cytotoxicity against human MT2 cells assessed as reduction in cell viability at 3 uM incubated for 12 days by CCK-8 assay; type: toxicity, cell-based; settings: mt2, 288 h, time 12 day
[32] = Mutagenicity in Salmonella typhimurium TA1537 assessed as inhibition of bacterial growth at 0.152 to 333 ug incubated in presence of S9 fraction by micro-Ames test; type: toxicity, subcellular, Salmonella enterica subsp. enterica serovar Typhimurium; settings: dose 0.152-333 µg
[33] = Mutagenicity in Salmonella typhimurium TA98 assessed as fold increase in number of revertants at 0.152 to 333 ug incubated in absence of S9 fraction by micro-Ames test relative to control; type: toxicity, Salmonella enterica subsp. enterica serovar Typhimurium; settings: in vivo; dose 0.152-333 µg
[34] = Stability of compound in DMSO incubated for 7 days at -18 degreeC by RP-HPLC analysis; type: physicochemical; settings: 168 h; time 7 day
[35] = Mutagenicity in Salmonella typhimurium TA100 assessed as fold increase in number of revertants at 0.152 to 333 ug incubated in presence of S9 fraction by micro-Ames test relative to control; type: toxicity, subcellular, Salmonella enterica subsp. enterica serovar Typhimurium; settings: dose 0.152-333 µg
Vero C1008 = experiment: Cytotoxicity against African green monkey Vero E6 cells infected with SARS-CoV-2 WK-521 upto 100 uM incubated for 3 days by immunostaining analysis; type: toxicity, cell-based; settings: chlorocebus sabaeus, vero c1008, 72 h, time 3 day
[36] = Stability of compound in 50% MeCN in H2O incubated for 24 hrs at room temperature by RP-HPLC analysis; type: physicochemical
SARS-CoV-2 [37] = experiment: Antiviral activity against SARS-CoV-2 JPN/TY/WK-521 infected in Vero E6 cells assessed as fold change preincubated with cells for 1 day followed by viral infection and measured after 3 days by qRT-PCR analysis relative to TKB245; type: functional, Severe acute respiratory syndrome coronavirus 2; settings: time 4 day

CC(C)(C)[C@H](NC(=O)C(F)(F)F)C(=O)N1C[C@H]2[C@@H]([C@H]1C(=S)N[C@@H](C[C@@H]1CCNC1=O)C(=O)c1nc3c(F)cccc3s1)C2(C)C
Activity (PBMC): Non-Toxic | IC50 [1]: 88 nM | fold change (FC) [2]: > 2 | EC50 (SARS-CoV-2 [3]): 320 nM | fold change (FC) [4]: > 2 | Activity [5]: Non-Toxic | CC50 [6]: > 200000 nM | fold change (FC) (SARS-CoV-2 [7]): 0.085 | CC50 [8]: > 100000 nM | Activity [9]: Non-Toxic | Activity [10]: Non-Toxic | bioavailability [11]: 72% | fold change (FC) [12]: > 2 | fold change (FC) [13]: > 2 | Activity [14]: Non-Toxic | EC50 (SARS-CoV-2 [15]): 310 nM | Activity [16]: Non-Toxic | fold change (FC) [17]: > 2 | CC50 [18]: > 100000 nM | CC50 [19]: > 100000 nM | fold change (FC) [20]: > 2 | Stability [21]: Unstable | Activity (MOLT-4): Non-Toxic | EC50 (SARS-CoV-2 [22]): 160 nM | CC50 at 72 h [23]: > 100000 nM | EC50 (SARS-CoV-2 [24]): 310 nM | Activity [25]: Non-Toxic | Activity [26]: Non-Toxic | Activity [27]: Non-Toxic | fold change (FC) [28]: > 2 | fold change (FC) [29]: > 2 | EC50 (SARS-CoV-2 [30]): 220 nM | Activity [31]: Non-Toxic | Activity (MT2): Non-Toxic | Activity [32]: Non-Toxic | fold change (FC) [33]: > 2 | Stability [34]: Stable | fold change (FC) [35]: > 2 | Activity (Vero C1008): Non-Toxic | Stability [36]: Stable | fold change (FC) (SARS-CoV-2 [37]): 11
